Results from patent publication US20110098288A1, “SULFONAMIDES AS ZAP-70 INHIBITORS” (priority 2008, published 2011).
Counter-ions that a name gives are not always drawn.

Legend:
Jurkat cells = experiment: Calcium release assay (Fluo-4 flow cytometry after anti-CD3 stimulation); type: cell-based; conditions: Homo sapiens, Jurkat cell line J77, anti-CD3 activation, read-out: IC50 (Calcium ion release in cells)
How it was run: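 Jurkat J77 cells loaded with Fluo-4/Pluronic F-127 for 30 min at 37 °C, then incubated with compound at room temperature in the dark in PBS–CaCl2 with 10% FCS. Stimulation with anti-CD3 (0.2 μg/ml final) plus GAM (0.75 μg/ml final) at 37 °C, then flow-cytometric Ca2+ fluorescence acquired for 200 s.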

ZAP-70 = molecular target: T1, ZAP-70 (Homo sapiens, UniProt P43403); experiment: ZAP-70 kinobeads assay; type: binding; conditions: competition with immobilized aminopyrido-pyrimidine ligand 24 in cell lysate; ZAP-70 detected by dot blot
T1 construct: endogenous in cells; host or cells: cell lysate
T1 sequence (P43403 1-619): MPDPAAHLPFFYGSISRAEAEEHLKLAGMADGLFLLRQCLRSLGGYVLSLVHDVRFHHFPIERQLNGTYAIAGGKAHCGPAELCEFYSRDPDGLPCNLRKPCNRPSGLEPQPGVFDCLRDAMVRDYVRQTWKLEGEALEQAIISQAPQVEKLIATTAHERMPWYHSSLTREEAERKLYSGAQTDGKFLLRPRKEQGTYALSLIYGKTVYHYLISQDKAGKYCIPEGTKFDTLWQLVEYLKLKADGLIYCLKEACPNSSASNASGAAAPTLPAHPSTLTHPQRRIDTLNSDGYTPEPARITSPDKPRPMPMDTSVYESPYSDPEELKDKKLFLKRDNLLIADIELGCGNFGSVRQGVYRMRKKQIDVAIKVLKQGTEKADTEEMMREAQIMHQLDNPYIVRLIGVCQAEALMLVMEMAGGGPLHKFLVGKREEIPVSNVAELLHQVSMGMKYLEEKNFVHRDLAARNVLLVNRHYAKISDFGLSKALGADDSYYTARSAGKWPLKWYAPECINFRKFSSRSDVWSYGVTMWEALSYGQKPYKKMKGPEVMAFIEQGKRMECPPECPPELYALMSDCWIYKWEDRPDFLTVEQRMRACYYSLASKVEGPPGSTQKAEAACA
How it was run: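 Cell lysate aliquots incubated with test compounds at various concentrations plus affinity beads carrying immobilized aminopyrido-pyrimidine ligand 24. Bead-captured proteins eluted; ZAP-70 quantified by specific antibody dot blot with infrared detection.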

COc1cc(Nc2ncc(F)c(Nc3cccc(C)c3NS(C)(=O)=O)n2)cc(OC)c1OCCN1CCCCC1 [Example 113, N-(2-(2-(3,5-dimethoxy-4-(2-(piperidin-1-yl)ethoxy)phenylamino)-5-fluoropyrimidin-4-ylamino)-6-methylphenyl)methanesulfonamide]
IC50 (Jurkat cells): 100 to 1000 nM
IC50 (ZAP-70): < 100 nM

CCN(CC)C(=O)COc1cccc(Nc2ncc(Cl)c(Nc3ccccc3NS(C)(=O)=O)n2)c1 [Example 150, 2-(3-(5-chloro-4-(2-(methylsulfonamido)phenylamino)pyrimidin-2-ylamino)phenoxy)-N,N-diethylacetamide]
IC50 (Jurkat cells): < 100 nM
IC50 (ZAP-70): 100 to 1000 nM

COc1cc(Nc2ncc(F)c(Nc3ccc(C)cc3NS(C)(=O)=O)n2)cc(OC)c1OC [Example 170, N-(2-(5-Fluoro-2-(3,4,5-trimethoxyphenylamino)pyrimidin-4-ylamino)-5-methylphenyl)methanesulfonamide]
IC50 (Jurkat cells): 100 to 1000 nM
IC50 (ZAP-70): 100 to 1000 nM

Cc1cccc(Nc2nc(Nc3cccc(OCCN4CCCCC4)c3)ncc2F)c1NS(C)(=O)=O [Example 112, N-(2-(5-fluoro-2-(3-(2-(piperidin-1-yl)ethoxy)phenylamino)pyrimidin-4-ylamino)-6-methylphenyl)methanesulfonamide]
IC50 (Jurkat cells): 100 to 1000 nM
IC50 (ZAP-70): < 100 nM

CS(=O)(=O)Nc1ccccc1Nc1nc(Nc2ccc(NC(=O)CN3CCCC3)cc2)ncc1Cl [Example 132, N-(4-(5-chloro-4-(2-(methylsulfonamido)phenylamino)pyrimidin-2-ylamino)phenyl)-2-(pyrrolidin-1-yl)acetamide]
IC50 (Jurkat cells): < 100 nM
IC50 (ZAP-70): 100 to 1000 nM

COc1cc(Nc2ncc(F)c(Nc3cccc(C)c3NS(C)(=O)=O)n2)cc(OCCN2CCCCC2)c1OC [Example 114, N-(2-(2-(3,4-dimethoxy-5-(2-(piperidin-1-yl)ethoxy)phenylamino)-5-fluoropyrimidin-4-ylamino)-6-methylphenyl)methanesulfonamide]
IC50 (Jurkat cells): 100 to 1000 nM
IC50 (ZAP-70): < 100 nM

COc1cc(Nc2ncc(F)c(Nc3ccc(F)c(C)c3NS(C)(=O)=O)n2)cc(OC)c1OC [Example 162, N-(3-fluoro-6-(5-fluoro-2-(3,4,5-trimethoxyphenylamino)pyrimidin-4-ylamino)-2-methylphenyl)methanesulfonamide]
IC50 (Jurkat cells): 100 to 1000 nM
IC50 (ZAP-70): 100 to 1000 nM

CN1CCCC(COc2cccc(Nc3ncc(F)c(Nc4ccccc4NS(C)(=O)=O)n3)c2)C1 (centres unmarked) [Example 98, N-(2-(5-fluoro-2-(3-((1-methylpiperidin-3-yl)methoxy)phenylamino)pyrimidin-4-ylamino)phenyl)methanesulfonamide]
IC50 (Jurkat cells): 100 to 1000 nM
IC50 (ZAP-70): < 100 nM

CS(=O)(=O)Nc1ccccc1Nc1nc(Nc2ccc3cn[nH]c3c2)ncc1F [Example 32, N-(2-(2-(1H-indazol-6-ylamino)-5-fluoropyrimidin-4-ylamino)phenyl)methanesulfonamide]
IC50 (Jurkat cells): 100 to 1000 nM
IC50 (ZAP-70): 100 to 1000 nM

CN1CCN(CCOc2ccc(Nc3ncc(F)c(Nc4ccccc4NS(C)(=O)=O)n3)cc2)CC1 [Example 89, N-(2-(5-Fluoro-2-(4-(2-(4-methylpiperazin-1-yl)ethoxy)phenylamino)pyrimidin-4-ylamino)phenyl)methanesulfonamide]
IC50 (Jurkat cells): 100 to 1000 nM
IC50 (ZAP-70): 100 to 1000 nM

COc1cccc(Nc2ncc(F)c(Nc3ccccc3NS(C)(=O)=O)n2)c1 [Example 38, N-(2-(5-fluoro-2-(3-methoxyphenylamino)pyrimidin-4-ylamino)phenyl)methanesulfonamide]
IC50 (Jurkat cells): 100 to 1000 nM
IC50 (ZAP-70): 1000 to 10000 nM

COc1cccc(Nc2nc(Nc3cc(OC)c(OC)c(OC)c3)ncc2F)c1NS(C)(=O)=O [Example 172, N-(2-(5-fluoro-2-(3,4,5-trimethoxyphenylamino)pyrimidin-4-ylamino)-6-methoxyphenyl)methanesulfonamide]
IC50 (Jurkat cells): 100 to 1000 nM
IC50 (ZAP-70): 100 to 1000 nM

COc1cc(Nc2ncc(F)c(Nc3cccc(C)c3NS(C)(=O)=O)n2)cc(OC(C)C)c1OC [Example 118, N-(2-(5-fluoro-2-(3-isopropoxy-4,5-dimethoxyphenylamino)pyrimidin-4-ylamino)-6-methylphenyl)methanesulfonamide]
IC50 (Jurkat cells): 100 to 1000 nM
IC50 (ZAP-70): < 100 nM

COc1cc(Nc2nccc(Nc3cccc(C)c3NS(C)(=O)=O)n2)cc(OCCN2CCCCC2)c1 [Example 177, N-(2-(2-(3-methoxy-5-(2-(piperidin-1-yl)ethoxy)phenylamino)pyrimidin-4-ylamino)-6-methylphenyl)methanesulfonamide formate salt]
IC50 (Jurkat cells): 100 to 1000 nM
IC50 (ZAP-70): 100 to 1000 nM

COc1cc(Nc2ncc(Cl)c(Nc3ccccc3NS(C)(=O)=O)n2)cc(OC)c1OC [Example 138, N-(2-(5-chloro-2-(3,4,5-trimethoxyphenylamino)pyrimidin-4-ylamino)phenyl)methanesulfonamide hydrochloride]
IC50 (Jurkat cells): < 100 nM
IC50 (ZAP-70): < 100 nM

COc1cc(Nc2ncc(F)c(Nc3cccc(C(C)C)c3NS(C)(=O)=O)n2)cc(OC)c1OC [Example 161, N-(2-(5-fluoro-2-(3,4,5-trimethoxyphenylamino)pyrimidin-4-ylamino)-6-isopropylphenyl)methanesulfonamide]
IC50 (Jurkat cells): 100 to 1000 nM
IC50 (ZAP-70): 100 to 1000 nM

CS(=O)(=O)Nc1ccccc1Nc1nc(Nc2cccc(OCCN3CCOCC3)c2)ncc1F [Example 77, N-(2-(5-fluoro-2-(3-(2-morpholinoethoxy)phenylamino)pyrimidin-4-ylamino)phenyl)methanesulfonamide]
IC50 (Jurkat cells): 100 to 1000 nM
IC50 (ZAP-70): 100 to 1000 nM

CN1CCN(CCCOc2cccc(Nc3ncc(Cl)c(Nc4ccccc4NS(C)(=O)=O)n3)c2)CC1 [Example 135]
IC50 (Jurkat cells): < 100 nM
IC50 (ZAP-70): < 100 nM

Cc1cc(C)cc(Nc2ncc(F)c(Nc3ccccc3N(C)S(C)(=O)=O)n2)c1 [Example 72, N-(2-(2-(3,5-dimethylphenylamino)-5-fluoropyrimidin-4-ylamino)phenyl)-N-methylmethanesulfonamide]
IC50 (Jurkat cells): 100 to 1000 nM
IC50 (ZAP-70): 1000 to 10000 nM

CNCCS(=O)(=O)Nc1cccc(Nc2nc(Nc3cc(OC)c(OC)c(OC)c3)ncc2F)c1 [Example 64, N-(3-(5-fluoro-2-(3,4,5-trimethoxyphenylamino)pyrimidin-4-ylamino)phenyl)-2-(methylamino)ethanesulfonamide]
IC50 (Jurkat cells): 100 to 1000 nM
IC50 (ZAP-70): 100 to 1000 nM

COc1ccc(Nc2ncc(Br)c(Nc3ccccc3NS(C)(=O)=O)n2)cc1 [Example 106, N-(2-(5-bromo-2-(4-methoxyphenylamino)pyrimidin-4-ylamino)phenyl)methanesulfonamide]
IC50 (Jurkat cells): 100 to 1000 nM
IC50 (ZAP-70): 100 to 1000 nM

COc1ccc(Nc2ncc(Cl)c(Nc3ccccc3NS(C)(=O)=O)n2)cc1OCCN1CCCCC1 [Example 125, N-(2-(5-chloro-2-(4-methoxy-3-(2-(piperidin-1-yl)ethoxy)phenylamino)pyrimidin-4-ylamino)phenyl)methanesulfonamide]
IC50 (Jurkat cells): 100 to 1000 nM
IC50 (ZAP-70): < 100 nM

CS(=O)(=O)Nc1ccccc1Nc1nc(Nc2ccc(OCCN3CCCC3)cc2)ncc1F [Example 96, N-(2-(5-fluoro-2-(4-(2-(pyrrolidin-1-yl)ethoxy)phenylamino)pyrimidin-4-ylamino)phenyl)methanesulfonamide]
IC50 (Jurkat cells): 100 to 1000 nM
IC50 (ZAP-70): 100 to 1000 nM

CCN(c1ccccc1Nc1nc(Nc2ccc(OCCN3CCCCC3)cc2)ncc1F)S(C)(=O)=O [Example 158, N-ethyl-N-(2-(5-fluoro-2-(4-(2-(piperidin-1-yl)ethoxy)phenylamino)pyrimidin-4-ylamino)phenyl)methanesulfonamide]
IC50 (Jurkat cells): < 100 nM
IC50 (ZAP-70): 100 to 1000 nM

COc1cc(Nc2ncc(Cl)c(Nc3ccc4c(c3NS(C)(=O)=O)OCCO4)n2)cc(OC)c1OC [Example 164, N-(6-(5-chloro-2-(3,4,5-trimethoxyphenylamino)pyrimidin-4-ylamino)-2,3-dihydrobenzo[b][1,4]dioxin-5-yl)methanesulfonamide]
IC50 (Jurkat cells): < 100 nM
IC50 (ZAP-70): < 100 nM

COc1ccc(Nc2ncc(Cl)c(Nc3ccccc3NS(C)(=O)=O)n2)cc1 [Example 139, N-(2-(5-chloro-2-(4-methoxyphenylamino)pyrimidin-4-ylamino)phenyl)methanesulfonamide hydrochloride]
IC50 (Jurkat cells): < 100 nM
IC50 (ZAP-70): 100 to 1000 nM

Cc1nc2cc(Nc3ncc(F)c(Nc4ccccc4NS(C)(=O)=O)n3)ccc2s1 [Example 18, N-(2-(5-fluoro-2-(2-methylbenzo[d]thiazol-5-ylamino)pyrimidin-4-ylamino)phenyl)methanesulfonamide]
IC50 (Jurkat cells): 100 to 1000 nM
IC50 (ZAP-70): 1000 to 10000 nM

CN1CCCCC1COc1cccc(Nc2ncc(Cl)c(Nc3ccccc3NS(C)(=O)=O)n2)c1 (centres unmarked) [Example 145, N-(2-(5-chloro-2-(3-((1-methylpiperidin-2-yl)methoxy)phenylamino)pyrimidin-4-ylamino)phenyl)methanesulfonamide]
IC50 (Jurkat cells): 100 to 1000 nM
IC50 (ZAP-70): < 100 nM
